Assay results published in article PMC12811659.

Tests used:
[1] = not given; remark: listed apart in the source
[2] = not given; remark: listed apart in the source

Row | Structure (SMILES) | cis-isomer fraction after 365 nm irradiation [%] | trans-isomer fraction, native state [1] [%] | trans-isomer fraction after 520 nm irradiation [2] [%]
1 | CC[C@H](C)[C@H](NC(=O)Cn1nc(C)c(/N=N\c2ccccc2)c1C)C(=O)N[C@@H](CO)C(=O)N[C@@H](C)C(=O)O | > 98 | – | –
2 | CC[C@H](C)[C@H](NC(=O)Cn1nc(C)c(/N=N/c2ccccc2)c1C)C(=O)N[C@@H](CO)C(=O)N[C@@H](C)C(=O)O | – | 85 | 87
